{
  "source": "patent US20190151294A1",
  "about": "“TREATMENT OF ALCOHOLISM AND DEPRESSION AND/OR DYSPHORIC MOOD USING IBUDILAST” (MEDICINOVA, INC., priority 2016, published 2019)",
  "key": {"[1]": {"tested_on": "alcohol-preferring (P) rats", "assay": "Voluntary ethanol consumption in alcohol-preferring (P) rats", "type": "in vivo, rat", "conditions": "for dose dependence of effect on ethanol intake (2-way mixed ANOVA): p<0.001", "experimental": "(§1) To perform the study, adult male P and HAD1 rats were randomly assigned to receive one of the following four doses of ibudilast—0 mg/Kg, 3 mg/Kg, 6 mg/Kg, or 9 mg/Kg with eight rats assigned to each dose. Each dosing group was balanced to average a 2 h/day ethanol (15% v/v) intake. Water was concurrently available to the rats and Mazola corn oil was used as the vehicle.\n(§2) The study was divided into four test phases. In the maintenance test phase rats in the treatment group were injected ibudilast subcutaneously (2 mL/kg s.c.), using standard solutions that deliver 3 mg/Kg, 6 mg/Kg or 9 mg/Kg of ibudilast, 60 min before each ethanol test session and the same dose of ibudilast was administered subcutaneously to the rats 8 hours later. Rats in the control group, however, are administered 2 mL/Kg Mazola corn oil subcutaneously. This protocol was carried out for 4 consecutive days. Following the maintenance test phase, is a two week no drug recovery phase during which rats are permitted access to ethanol and the amount of ethanol consumed by the rats was measured.\n(§3) The recovery phase is followed by a two week forced ethanol abstinence phase. Following forced abstinence, the effects of ibudilast on ethanol drinking were examined by re-introducing ethanol to rats for a period of 5 consecutive days (i.e., the Relapse Test phase). Each animal received the same dose of ibudilast during maintenance and relapse test phases."}, "[2]": {"tested_on": "high-alcohol-drinking (HAD1) rats", "assay": "Voluntary ethanol consumption in high-alcohol-drinking (HAD1) rats", "type": "in vivo, rat", "conditions": "for dose dependence of effect on ethanol intake (2-way mixed ANOVA): p<0.001", "experimental": "as §1, §2, §3"}, "C57BL/6J mice": {"tested_on": "C57BL/6J mice", "assay": "Chronic intermittent ethanol (CIE) exposure mouse model of ethanol dependence", "type": "in vivo", "experimental": "Briefly, mice were divided into test (ethanol dependent) and control (non-ethanol dependent) groups. Mice in the former group were exposed to chronic intermittent ethanol (CIE) vapor (16 hr/day×4 days), and then forced to abstain from alcohol for 72 hours. Mice were then permitted access to ethanol for 2 h/day for a 5-day test period. This pattern of weekly CIE exposures followed by 5-day test periods was repeated for 9 cycles. Mice in the control group were treated in the same manner, except these animals were exposed to air rather than ethanol vapors. Mice from both groups were further divided into four sub-groups with animals receiving 0 mg/Kg, 3 mg/Kg, 6 mg/Kg or 12 mg/Kg dose of ibudilast.\nIn a separate study, adult male C57BL/6J mice were used to evaluate ibudilast as a therapeutic for the treatment of alcohol dependence. Two groups of mice were used for the study. Mice in the first group were trained to drink ethanol using a 2 h/day free-choice (15% v/v ethanol) drinking procedure (ethanol dependent (EtOH) mice), while mice in the second group were provided water and served a control (ethanol nondependent (CTL)) mice. Both the ethanol dependent and ethanol non-dependent groups had equal number of mice (N=37-38/group).\nMice in the alcohol dependent group were then exposed to chronic intermittent ethanol (CIE) vapors for 16 hr/day over four days. After a 72 hours forced abstinence period, the ethanol dependent mice were again permitted access to ethanol for 2 hours each day over a 5 consecutive test days. This pattern of chronic intermittent ethanol vapor exposure for four consecutive days followed by forced abstinence and a five day ethanol access test period was repeated for 9 cycles. Mice in the control (CTL) group were treated in a similar manner except that air was used in the inhalation chambers in place of ethanol vapors.\nBoth control and ethanol dependent mice received subcutaneous (s.c.) injections of the vehicle at 9 hours and 1 hour prior to the start of daily drinking sessions during Test Cycles 4, 5 and 6 to acclimate the animals to handling and administration of injections.\nAt the end of test cycle 6, mice in the ethanol dependent group and the control group were separated into four sub-groups with animals receiving one of four doses of ibudilast—0 mg/Kg, 3 mg/Kg, 6 mg/Kg or 12 mg/Kg during Test Cycles 7 and 8. Each sub-group contained 9-10 mice (N=9-10/group). The dose of ibudilast was increased during Test Cycle 9 with ethanol dependent and control mice receiving one of the following four doses of ibudilast—0 mg/Kg, 6 mg/Kg, 12 mg/Kg, or 18 mg/Kg. Thus, mice previously receiving a dose of […] were administered ibudilast at a dose of 18 mg/Kg during Test Cycle 9."}, "[3]": {"tested_on": "non-treatment-seeking individuals with AUD", "assay": "Phase 1b study: stress reactivity assessment (SR)", "type": "in vivo, human", "conditions": "50 mg BID", "excerpt": "Personal information collected at the time of admission (day 1) to the CRTC was used to generate personalized scripts of neutral and stressful conditions. Participants were asked to identify a recent stressful experience and to rate them on a 0 to 10 Likert scale, where a rating of 10 is considered to be the most stressful experience. Only stressful events rated≥8 were used in script development. Data on physical symptoms associated with the stressful and neutral events were also collected for script development.\nDuring the study, each exposure consisted of 5-minute tape-recorded scripts recounting the recent stressful (or neutral) events in the participants' lives, including cognitions and physical feelings. […]\nThe following measures of mood, urge to drink, and physiological reactivity were administered at baseline and post-imagery for both the stress and neutral conditions: (1) The Profile of Mood States, Short Version (POMS) collected data on (a) positive and negative mood; (2) The Alcohol Urge Questionnaire (AUQ) measured subjective levels of alcohol cravings at the present moment (i.e., following stress imagery); (3) Cortisol levels were assessed by collecting saliva samples and heart rate and blood pressure were measured using a Dynamap Adult Vital Signs Monitor. […]"}},
  "data": [
    {"smiles": "CC(C)C(=O)c1c(C(C)C)nn2ccccc12", "note": "[ibudilast, Ibudilast]", "values": [
      {"measurement": "reduction of ethanol intake", "setting": "[1]; 5-day Relapse Test phase", "result": "about 50%"},
      {"measurement": "ethanol drinking relative to controls", "setting": "[1]; Relapse Test phase, 6 mg/Kg and 9 mg/Kg doses, p<0.05", "result": "significantly reducing ethanol drinking relative to controls"},
      {"measurement": "dose dependence of effect on ethanol intake (2-way mixed ANOVA)", "setting": "[1]; Relapse Test phase", "result": "dose dependent reduction in ethanol intake"},
      {"measurement": "24-hour food intake", "setting": "[1]; especially at the 9 mg/Kg dose, effect diminished over the 5-day test phase", "result": "transitory reductions"},
      {"measurement": "dose dependence of effect on ethanol intake (2-way mixed ANOVA)", "setting": "[1]; maintenance test phase, 0, 3, 6, 9 mg/Kg", "result": "dose dependent reduction of ethanol intake"},
      {"measurement": "reduction of ethanol intake", "setting": "[1]; maintenance test phase, 4 days, s.c. twice daily, vs vehicle", "result": "approximately 50%"},
      {"measurement": "time course of reduced ethanol intake (Dose x Day interaction)", "setting": "[1]; p<0.001, data not shown", "result": "most robust on the first day"},
      {"measurement": "reduction of ethanol intake", "setting": "[2]; HAD1 rats, 5-day Relapse Test phase", "result": "about 50%"},
      {"measurement": "dose dependence of effect on ethanol intake (2-way mixed ANOVA)", "setting": "[2]; HAD1 rats, Relapse Test phase", "result": "dose dependent reduction in ethanol intake"},
      {"measurement": "reduction of ethanol intake", "setting": "[2]; HAD1 rats, maintenance test phase, 4 days, s.c. twice daily, vs vehicle", "result": "approximately 50%"},
      {"measurement": "dose dependence of effect on ethanol intake (2-way mixed ANOVA)", "setting": "[2]; HAD1 rats, maintenance test phase, 0, 3, 6, 9 mg/Kg", "result": "dose dependent reduction of ethanol intake"},
      {"measurement": "time course of reduced ethanol intake (Dose x Day interaction)", "setting": "[2]; HAD1 rats, p=0.023, data not shown", "result": "most robust on the first day"},
      {"measurement": "24-hour food intake", "setting": "[2]; HAD rats, especially at the 9 mg/Kg dose, effect diminished over the 5-day test phase", "result": "transitory reductions"},
      {"measurement": "ethanol intake of alcohol dependent mice vs control group counterparts", "setting": "C57BL/6J mice; 6 mg, Test Cycle 9, p<0.05", "result": "consumed significantly more ethanol"},
      {"measurement": "difference in ethanol intake between alcohol dependent and control mice", "setting": "C57BL/6J mice; 12 mg/Kg and 18 mg/Kg, Test Cycle 9", "result": "no significant difference"},
      {"measurement": "reduction of ethanol intake, alcohol dependent vs control mice (Group x Dose interaction)", "setting": "C57BL/6J mice; 12 mg/Kg and 18 mg/Kg, Test Cycle 9, p<0.01", "result": "more effective at reducing ethanol intake in alcohol dependent mice than control mice"},
      {"measurement": "ethanol intake", "setting": "C57BL/6J mice; 12 mg/Kg s.c., alcohol dependent mice, before Test Cycle 8 (FIG. 2)", "result": "reduced ethanol in alcohol dependent mice"},
      {"measurement": "ethanol consumption relative to vehicle", "setting": "C57BL/6J mice; 12 mg/Kg, Test Cycle 8, both alcohol dependent and control mice, p<0.05", "result": "reduced ethanol consumption to a greater extent"},
      {"measurement": "concurrent water intake", "setting": "C57BL/6J mice; associated with decreased ethanol intake", "result": "significant increases"},
      {"measurement": "ethanol intake of test (ethanol dependent) group vs control group", "setting": "C57BL/6J mice; at the higher doses (FIG. 2)", "result": "below those for mice in the control group"},
      {"measurement": "stress-induced AUQ craving", "setting": "[3]; day 5 stress-exposure", "result": "did not affect"},
      {"measurement": "positive mood during stress procedures", "setting": "[3]; p<0.05, FIG. 6", "result": "increased positive mood"}
    ]}
  ]
}
